Test results reported in patent US10624867B2, “Transdermally-delivered combination drug therapy for pain” (BioChemics, Inc., priority 2017, dated 2020).

Tests used:
[1] = system: Complete Freund's Adjuvant (CFA)-induced thermal hyperalgesia; assay: CFA inflammation model, thermal response (paw withdrawal latency to radiant heat), set A; assay type: in vivo, Sprague-Dawley rats; conditions: for thermal antihyperalgesia: topical cream to hindpaw, day 3 at 2 and 4 hours after treatment
Procedure: Baselines were established for all rats for thermal response latency before intraplantar (i.pl.) injection of the inflammatory agent. Three days after injection of the inflammatory agent (CFA), the degree of thermal hypersensitivity was determined followed by topical application to anesthetized rats of i) the drug-free cream, creams containing ii) ibuprofen, iii) gabapentin, and each the combination of ibuprofen with gabapentin using a topical cream optimized for deep skin penetration/vascular access. Six experimental groups were used in total Application of ibuprofen cream served both as an active pharmacological agent and positive control throughout these studies. The drug formulation and control cream (negative control) was applied to the glabrous side of the rat hindpaw using a previously published method. Nozaki-Taguchi, N. and T. L. Yaksh., Characterization of the Antihyperalgesic Action of a Novel Peripheral Mu-opioid Receptor Agonist-loperamide, Anesthesiology, 90: 225-234, 1999; Iadarola, M. J., et al., Increased Spinal Cord Dynorphin mRNA During Peripheral Inflammation, NIDA Re.s Monogr., 75: 406-409, 1986.
Rats were isoflurane-anesthetized (1-2%) and the cream (0.2 g) applied gently with a finger for 1 minute to the glabrous skin of the hindpaw. For low drug concentrations, 5% formulations of all drugs were. For high drug concentrations, 10% cream formulations were employed. […] Upon recovery from anesthesia (within 10 minutes of cessation of anesthetic), rats were moved to plexiglass enclosures for sensory assessment. Efficacy was initially tested at 1, 2, 4, 8, 24 hours after cream treatment; depending on initial results. Time was revised to track the onset and offset of drug effects.
(§1) Two parallel studies (two arms) were done, each with four treatment groups, with four Sprague-Dawley rats per group. The rats used were male rats weighing 175-200 grams. Half of the rats were given injections of 1:1 complete Freund's adjuvant (CFA) on day 0 to produce long-term inflammation of the left hindpaw; the other half of the rats were given spared nerve injury (SNI, transection of 2 of 3 branches of the sciatic nerve) in the lower thigh on day 0.
(§2) Before treatments, rats' baseline response thermal latencies (on a glass surface suspended above a moveable heat lamp) or mechanical thresholds (on a wire mesh surface suspended above a moveable electronic von Frey stimulator) were determined after 15 min acclimatization on the thermal or mechanical testing apparatuses.
(§3) The CFA model of persistent inflammatory hyperalgesia in one hindpaw of the rats was utilized (see Gold and Gebhart, Nature Medicine 16: 1248-1257, 2010). This model produces edema, reddening, inflammation, and behavioral hypersensitivity. Experimental groups of rats were anesthetized with isoflurane before receiving an intraplantar injection into the left hindpaw of 100 μl of CFA (1:1 with sterile PBS) using a sterile 0.5 ml syringe. The CFA model produced inflammatory signs accompanied by thermal and mechanical hyperalgesia in the injected hindpaw within six to eight hours. The hypersensitivity peaks at 3 days, which was the first testing day of the analgesic topical formulations in the CFA model.
One of four treatments was applied to each rat on days 3, 7 and 11 after CFA injection or on days 7, 14 and 21 after SNI application. […] For the formulations with ibuprofen and/or gabapentin, the formulation also contained vasodilators arginine and methyl nicotinate, chelator EDTA, solvents dimethyl acetamide and water, osmolyte potassium hydroxide, lipids soy bean oil and olive oil, and various other excipients including eucalyptol, gelcarin GP-379NF, glyceryl monostearate, menthol, methyl paraben, propylparaben, phenoxyethanol, permulen TR-1, phospolipon 90H, ST elastomer, urea, and Vitamin E TPGS. […]

[2] = system: CFA inflammation-induced mechanical hyperalgesia; assay: CFA inflammation model, mechanical response (von Frey stimulation), set A; assay type: in vivo, Sprague-Dawley rats; conditions: CFA rats
From the text: as §1, §2, §3
One of four treatments was applied to each rat on days 3, 7 and 11 after CFA injection or on days 7, 14 and 21 after SNI application. […] For the formulations with ibuprofen and/or gabapentin, the formulation also contained vasodilators arginine and methyl nicotinate, chelator EDTA, solvents dimethyl acetamide and water, osmolyte potassium hydroxide, lipids soy bean oil and olive oil, and various other excipients including eucalyptol, gelcarin GP-379NF, glyceryl monostearate, menthol, methyl paraben, propylparaben, phenoxyethanol, permulen TR-1, phospolipon 90H, ST elastomer, urea, and Vitamin E TPGS.
For application of the topical formulation, the rats were anesthetized with isoflurane for 30 min. while the creams were applied to both hindpaws to minimize oral absorption as described in Nozaki-Taguchi et al., Anesthesiology 90: 225-234, 1999; Iadarola et al., NIDA Res. Monogr. 75: 406-409, 1986. […]
In these studies, the sensory responsiveness to thermal (radiant heat) stimuli was assessed in terms of time to elicit paw withdrawal. […] Sensory responses to mechanical stimulus (von Frey stimulation) were also assessed prior to CFA injection and following several days after inflammation (FIGS. 2A-2C) or nerve injury (FIGS. 4A-5C). […]

[3] = CFA rats, days 7 and 12 post-CFA
[4] = day 11 at 2 hours after treatment
[5] = day 12 at 2 hours after treatment

NCC1(CC(=O)O)CCCCC1 [gabapentin]
thermal antihyperalgesia (possible efficacy) on later days [1, 3]: not repeated | thermal antihyperalgesia ([1]; CFA rats): borderline significant | suppression of thermal hyperalgesia ([1]; CFA rats, transdermal delivery, drug alone): failed to suppress | efficacy against mechanical hyperalgesia, agent given alone [2, 4]: efficacious | efficacy against mechanical hyperalgesia, agent given alone [2, 5]: efficacious

CC(C)Cc1ccc(C(C)C(=O)O)cc1 (stereo not drawn) [ibuprofen, 2-[4-(2-methylpropyl)phenyl]propanoic acid]
reversal of hyperalgesia ([1]; CFA rats, cream applied for 20 minutes, 1 hour after treatment on day 3 post-CFA): completely reversed | duration of beneficial impact of the drug ([1]; CFA rats, day 3 post-CFA): 4 h | hyperalgesia after 24 hours ([1]; CFA rats, day 3 post-CFA, 24 hours after treatment): completely returned to the baseline level | statistical significance of the effect ([1]; CFA rats, day 3 post-CFA, vs vehicle (ANOVA, Dunnett)): statistically significant | thermal antihyperalgesia (possible efficacy) on later days ([1]; CFA rats, days 7 and 11 post-CFA): not repeated | thermal antihyperalgesia (possible efficacy) on later days [1, 3]: not repeated | thermal antihyperalgesia ([1]; CFA rats): borderline significant | reversal of thermal hypersensitivity ([1]; FIGS. 1A-1C, at some time points during the testing period): significant reversal | efficacy against mechanical hyperalgesia, agent given alone [2, 4]: efficacious | efficacy against mechanical hyperalgesia, agent given alone [2, 5]: efficacious
